In ChEMBL document CHEMBL1201861, “Genomics of Drug Sensitity in Cancer screening data, Wellcome Trust Sanger Institute”:

How the values were obtained:
Assay in all cases: cells
CTV-1 = type: functional, cell-based, Homo sapiens; details: Homo sapiens, CTV-1;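 further: growth inhibition of the cell line, read out with a cell viability assay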
Description: SANGER: Inhibition of human CTV-1 cell growth in a cell viability assay.

DBTRG-05MG = type: functional, cell-based; details: Homo sapiens;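 further: cell viability assay measuring growth inhibition of human DBTRG-05MG cells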
Description: SANGER: Inhibition of human DBTRG-05MG cell growth in a cell viability assay.

DOHH-2 = type: functional, cell-based, Homo sapiens; details: Homo sapiens, DOHH-2;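 further: growth inhibition of human DOHH-2 cells, read out with a cell viability assay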
Description: SANGER: Inhibition of human DOHH-2 cell growth in a cell viability assay.

DU-4475 = type: functional, cell-based, Homo sapiens; details: Homo sapiens, DU-4475
Description: SANGER: Inhibition of human DU-4475 cell growth in a cell viability assay.

EKVX = type: functional, cell-based, Homo sapiens; details: Homo sapiens, EKVX;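 further: growth inhibition of human EKVX cells, read out with a cell viability assay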
Description: SANGER: Inhibition of human EKVX cell growth in a cell viability assay.

ES3 = type: functional, cell-based, Homo sapiens; details: Homo sapiens, ES3;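 further: growth inhibition of ES3 cells, read out with a cell viability assay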
Description: SANGER: Inhibition of human ES3 cell growth in a cell viability assay.

ES4 = type: functional, cell-based, Homo sapiens; details: Homo sapiens, ES4;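 further: growth inhibition of human ES4 cells, read out by a cell viability assay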
Description: SANGER: Inhibition of human ES4 cell growth in a cell viability assay.

EW-16 = type: functional, cell-based, Homo sapiens; details: Homo sapiens, EW-16;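 further: growth inhibition of human EW-16 cells, read out as cell viability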
Description: SANGER: Inhibition of human EW-16 cell growth in a cell viability assay.

GI-1 = type: functional, cell-based, Homo sapiens; details: Homo sapiens, GI-1;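 further: growth inhibition of human GI-1 cells, measured with a cell viability readout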
Description: SANGER: Inhibition of human GI-1 cell growth in a cell viability assay.

HCC2157 = type: functional, cell-based, Homo sapiens; details: Homo sapiens, HCC2157;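 further: growth inhibition of the cancer cell line, read out as cell viability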
Description: SANGER: Inhibition of human HCC2157 cell growth in a cell viability assay.

HDLM-2 = type: functional, cell-based, Homo sapiens; details: Homo sapiens, HDLM-2;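 further: cell viability assay measuring suppression of HDLM-2 proliferation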
Description: SANGER: Inhibition of human HDLM-2 cell growth in a cell viability assay.

HL-60 = type: functional, cell-based, Homo sapiens; details: Homo sapiens, HL-60;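 further: growth inhibition of human HL-60 cells, read out with a cell viability assay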
Description: SANGER: Inhibition of human HL-60 cell growth in a cell viability assay.

HT = type: functional, cell-based, Homo sapiens; details: Homo sapiens, HT
Description: SANGER: Inhibition of human HT cell growth in a cell viability assay.

J-RT3-T3-5 = type: functional, cell-based, Homo sapiens; details: Homo sapiens, J-RT3-T3-5;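 further: cell viability assay measuring growth inhibition of human J-RT3-T3-5 cells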
Description: SANGER: Inhibition of human J-RT3-T3-5 cell growth in a cell viability assay.

JVM-2 = type: functional, cell-based, Homo sapiens; details: Homo sapiens, JVM-2;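 further: growth inhibition of JVM-2 cells determined by a cell viability assay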
Description: SANGER: Inhibition of human JVM-2 cell growth in a cell viability assay.

KARPAS-45 = type: functional, cell-based, Homo sapiens; details: Homo sapiens, KARPAS-45;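 further: inhibition of cell line growth, read out through a viability assay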
Description: SANGER: Inhibition of human KARPAS-45 cell growth in a cell viability assay.

KU812 cell line = type: functional, cell-based, Homo sapiens; details: Homo sapiens, KU812;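 further: growth inhibition of KU812 cells, read out with a cell viability assay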
Description: SANGER: Inhibition of human KU812 cell growth in a cell viability assay.

KURAMOCHI = type: functional, cell-based, Homo sapiens; details: Homo sapiens, KURAMOCHI;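 further: growth inhibition of KURAMOCHI cells, read out with a cell viability assay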
Description: SANGER: Inhibition of human KURAMOCHI cell growth in a cell viability assay.

KY821 = type: functional, cell-based, Homo sapiens; details: Homo sapiens, KY821;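 further: growth inhibition of human KY821 cells, read out by a cell viability assay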
Description: SANGER: Inhibition of human KY821 cell growth in a cell viability assay.

LAMA-84 = type: functional, cell-based, Homo sapiens; details: Homo sapiens, LAMA-84;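 further: growth inhibition of LAMA-84 cells, read out with a cell viability assay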
Description: SANGER: Inhibition of human LAMA-84 cell growth in a cell viability assay.

LAN-6 = type: functional, cell-based, Homo sapiens; details: Homo sapiens, LAN-6;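 further: growth inhibition of LAN-6 cells, determined with a cell viability assay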
Description: SANGER: Inhibition of human LAN-6 cell growth in a cell viability assay.

LB1047-RCC = type: functional, cell-based, Homo sapiens; details: Homo sapiens, LB1047-RCC;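 further: inhibition of cell growth, determined with a cell viability assay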
Description: SANGER: Inhibition of human LB1047-RCC cell growth in a cell viability assay.

LB771-HNC = type: functional, cell-based; details: Homo sapiens;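 further: growth inhibition of LB771-HNC human cells, read out with a cell viability assay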
Description: SANGER: Inhibition of human LB771-HNC cell growth in a cell viability assay.

LC-2-ad = type: functional, cell-based, Homo sapiens; details: Homo sapiens, LC-2-ad;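 further: growth inhibition of human LC-2-ad cells, read out with a cell viability assay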
Description: SANGER: Inhibition of human LC-2-ad cell growth in a cell viability assay.

LNCaP-Clone-FGC = type: functional, cell-based, Homo sapiens; details: Homo sapiens, LNCaP-Clone-FGC
Description: SANGER: Inhibition of human LNCaP-Clone-FGC cell growth in a cell viability assay.

LS-411N = type: functional, cell-based, Homo sapiens; details: Homo sapiens, LS-411N
LU-134-A = type: functional, cell-based, Homo sapiens; details: Homo sapiens, LU-134-A
Description: SANGER: Inhibition of human LU-134-A cell growth in a cell viability assay.

MC116 = type: functional, cell-based, Homo sapiens; details: Homo sapiens, MC116;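 further: growth inhibition of MC116 cells, read out with a cell viability assay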
Description: SANGER: Inhibition of human MC116 cell growth in a cell viability assay.

NB10 = type: functional, cell-based, Homo sapiens; details: Homo sapiens, NB10;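 further: growth inhibition of NB10 cells, read out by a cell viability assay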
Description: SANGER: Inhibition of human NB10 cell growth in a cell viability assay.

NCI-H1155 = type: functional, cell-based, Homo sapiens; details: Homo sapiens, NCI-H1155;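 further: cell growth inhibition measured by a viability assay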
Description: SANGER: Inhibition of human NCI-H1155 cell growth in a cell viability assay.

NCI-H226 = type: functional, cell-based, Homo sapiens; details: Homo sapiens, NCI-H226;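 further: cell viability read-out used to gauge growth inhibition of the cells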
Description: SANGER: Inhibition of human NCI-H226 cell growth in a cell viability assay.

NKM-1 = type: functional, cell-based, Homo sapiens; details: Homo sapiens, NKM-1;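 further: growth inhibition of NKM-1 cells, read out with a cell viability assay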
Description: SANGER: Inhibition of human NKM-1 cell growth in a cell viability assay.

P30-OHK = type: functional, cell-based, Homo sapiens; details: Homo sapiens, P30-OHK;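 further: growth inhibition of the P30-OHK cell line, read out with a cell viability assay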
Description: SANGER: Inhibition of human P30-OHK cell growth in a cell viability assay.

RXF 393 = type: functional, cell-based, Homo sapiens; details: Homo sapiens, RXF 393;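 further: growth inhibition of human RXF 393 cells, read out with a cell viability assay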
Description: SANGER: Inhibition of human RXF393 cell growth in a cell viability assay.

SCH = type: functional, cell-based, Homo sapiens; details: Homo sapiens, SCH;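 further: growth inhibition of human SCH cells, read out in a cell viability assay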
Description: SANGER: Inhibition of human SCH cell growth in a cell viability assay.

SK-PN-DW = type: functional, cell-based, Homo sapiens; details: Homo sapiens, SK-PN-DW;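 further: growth inhibition measured with a viability assay on these cells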
Description: SANGER: Inhibition of human SK-PN-DW cell growth in a cell viability assay.

SK-UT-1 = type: functional, cell-based, Homo sapiens; details: Homo sapiens, SK-UT-1;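 further: growth inhibition of SK-UT-1 cells, measured by a cell viability assay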
Description: SANGER: Inhibition of human SK-UT-1 cell growth in a cell viability assay.

SW756 = type: functional, cell-based; details: Homo sapiens;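 further: growth inhibition of human SW756 cells, read out with a cell viability assay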
Description: SANGER: Inhibition of human SW756 cell growth in a cell viability assay.

SW 954 = type: functional, cell-based, Homo sapiens; details: Homo sapiens, SW 954;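 further: growth inhibition of SW954 human cancer cells, read out as cell viability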
Description: SANGER: Inhibition of human SW954 cell growth in a cell viability assay.

TE-1 = type: functional, cell-based, Homo sapiens; details: Homo sapiens, TE-1
Description: SANGER: Inhibition of human TE-1 cell growth in a cell viability assay.

A253 cell line = type: functional, cell-based, Homo sapiens; details: Homo sapiens, A253;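 further: growth inhibition of A253 cells, read out with a cell viability assay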
Description: SANGER: Inhibition of human A253 cell growth in a cell viability assay.

A4-Fuk = type: functional, cell-based, Homo sapiens; details: Homo sapiens, A4-Fuk;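 further: growth inhibition of A4-Fuk cells, read out by a cell viability assay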
Description: SANGER: Inhibition of human A4-Fuk cell growth in a cell viability assay.

A498 = type: functional, cell-based, Homo sapiens; details: Homo sapiens, A498;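 further: growth inhibition of human A498 cells, read out with a cell viability assay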
Description: SANGER: Inhibition of human A498 cell growth in a cell viability assay.

ACN = type: functional, cell-based, Homo sapiens; details: Homo sapiens, ACN;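 further: growth inhibition of the human ACN cell line, read out via cell viability testing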
Description: SANGER: Inhibition of human ACN cell growth in a cell viability assay.

C-33-A = type: functional, cell-based; details: Homo sapiens;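 further: cell viability assay measuring growth inhibition of C-33-A cells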
Description: SANGER: Inhibition of human C-33-A cell growth in a cell viability assay.

C32 = type: functional, cell-based; details: Homo sapiens;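 further: cell viability assay, with IC50 reflecting inhibition of C32 cell growth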
Description: SANGER: Inhibition of human C32 cell growth in a cell viability assay.

TE-11 = type: functional, cell-based; details: Homo sapiens;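 further: growth inhibition of human TE-11 cells, read out by a cell viability assay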
Description: SANGER: Inhibition of human TE-11 cell growth in a cell viability assay.

TE-12 = type: functional, cell-based, Homo sapiens; details: Homo sapiens, TE-12;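 further: growth inhibition of TE-12 cells, read out by a cell viability assay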
Description: SANGER: Inhibition of human TE-12 cell growth in a cell viability assay.

TGBC24TKB = type: functional, cell-based; details: Homo sapiens;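 further: growth inhibition of human TGBC24TKB cells, read out with a cell viability assay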
Description: SANGER: Inhibition of human TGBC24TKB cell growth in a cell viability assay.

UACC-257 = type: functional, cell-based, Homo sapiens; details: Homo sapiens, UACC-257
Description: SANGER: Inhibition of human UACC-257 cell growth in a cell viability assay.

CAS-1 = type: functional, cell-based, Homo sapiens; details: Homo sapiens, CAS-1;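 further: growth inhibition of CAS-1 cells, measured with a cell viability assay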
Description: SANGER: Inhibition of human CAS-1 cell growth in a cell viability assay.

SMILES: COc1ccc(-c2cc3nccn3c(Nc3ncccc3C(N)=O)n2)cc1OC
- IC50 (CTV-1): 1500 nM
- IC50 (DBTRG-05MG): > 8000 nM
- IC50 (DOHH-2): 2030 nM
- IC50 (DU-4475): 2170 nM
- IC50 (EKVX): > 8000 nM
- IC50 (ES3): 3030 nM
- IC50 (ES4): 1240 nM
- IC50 (EW-16): 1680 nM
- IC50 (GI-1): 5410 nM
- IC50 (HCC2157): > 8000 nM
- IC50 (HDLM-2): > 8000 nM
- IC50 (HL-60): > 8000 nM
- IC50 (HT): 6220 nM
- IC50 (J-RT3-T3-5): 6240 nM
- IC50 (JVM-2): > 8000 nM
- IC50 (KARPAS-45): 1900 nM
- IC50 (KU812 cell line): 4240 nM
- IC50 (KURAMOCHI): 7410 nM
- IC50 (KY821): > 8000 nM
- IC50 (LAMA-84): > 8000 nM
- IC50 (LAN-6): > 8000 nM
- IC50 (LB1047-RCC): 741 nM
- IC50 (LB771-HNC): > 8000 nM
- IC50 (LC-2-ad): 1820 nM
- IC50 (LNCaP-Clone-FGC): 2180 nM
- IC50 (LS-411N): 3780 nM
- IC50 (LU-134-A): 4320 nM
- IC50 (MC116): 2510 nM
- IC50 (NB10): 5300 nM
- IC50 (NCI-H1155): > 8000 nM
- IC50 (NCI-H226): 4030 nM
- IC50 (NKM-1): 1060 nM
- IC50 (P30-OHK): 427 nM
- IC50 (RXF 393): 6810 nM
- IC50 (SCH): > 8000 nM
- IC50 (SK-PN-DW): 5370 nM
- IC50 (SK-UT-1): 6240 nM
- IC50 (SW756): > 8000 nM
- IC50 (SW 954): > 8000 nM
- IC50 (TE-1): > 8000 nM
- IC50 (A253 cell line): > 8000 nM
- IC50 (A4-Fuk): 1810 nM
- IC50 (A498): > 8000 nM
- IC50 (ACN): > 8000 nM
- IC50 (C-33-A): 2530 nM
- IC50 (C32): > 8000 nM
- IC50 (TE-11): > 8000 nM
- IC50 (TE-12): 531 nM
- IC50 (TGBC24TKB): > 8000 nM
- IC50 (UACC-257): > 8000 nM
- IC50 (CAS-1): 4500 nM

SMILES: COC(=O)[C@H](CCSC)NC(=O)c1ccc(NC[C@@H](N)CS)cc1-c1ccccc1
- IC50 (CTV-1): > 1020 nM
- IC50 (DBTRG-05MG): > 1020 nM
- IC50 (DOHH-2): > 1020 nM
- IC50 (DU-4475): > 1020 nM
- IC50 (EKVX): > 1020 nM
- IC50 (ES3): > 1020 nM
- IC50 (ES4): > 1020 nM
- IC50 (EW-16): > 1020 nM
- IC50 (GI-1): > 1020 nM
- IC50 (HCC2157): > 1020 nM
- IC50 (HDLM-2): > 1020 nM
- IC50 (HL-60): > 1020 nM
- IC50 (HT): > 1020 nM
- IC50 (J-RT3-T3-5): > 1020 nM
- IC50 (JVM-2): > 1020 nM
- IC50 (KARPAS-45): > 1020 nM
- IC50 (KU812 cell line): > 1020 nM
- IC50 (KURAMOCHI): > 1020 nM
- IC50 (KY821): > 1020 nM
- IC50 (LAMA-84): > 1020 nM
- IC50 (LAN-6): > 1020 nM
- IC50 (LB1047-RCC): > 1020 nM
- IC50 (LB771-HNC): > 1020 nM
- IC50 (LC-2-ad): > 1020 nM
- IC50 (LNCaP-Clone-FGC): > 1020 nM
- IC50 (LS-411N): > 1020 nM
- IC50 (LU-134-A): > 1020 nM
- IC50 (MC116): > 1020 nM
- IC50 (NB10): > 1020 nM
- IC50 (NCI-H1155): > 1020 nM
- IC50 (NCI-H226): > 1020 nM
- IC50 (NKM-1): > 1020 nM
- IC50 (P30-OHK): > 1020 nM
- IC50 (RXF 393): > 1020 nM
- IC50 (SCH): > 1020 nM
- IC50 (SK-PN-DW): > 1020 nM
- IC50 (SK-UT-1): > 1020 nM
- IC50 (SW756): > 1020 nM
- IC50 (SW 954): > 1020 nM
- IC50 (TE-1): > 1020 nM
- IC50 (A253 cell line): > 1020 nM
- IC50 (A4-Fuk): > 1020 nM
- IC50 (A498): > 1020 nM
- IC50 (ACN): > 1020 nM
- IC50 (C-33-A): > 1020 nM
- IC50 (C32): > 1020 nM
- IC50 (TE-11): > 1020 nM
- IC50 (TE-12): > 1020 nM
- IC50 (TGBC24TKB): > 1020 nM
- IC50 (UACC-257): > 1020 nM
- IC50 (CAS-1): > 1020 nM
